Laboratory results from patent US10067124B2, “Immunoassay method for pro-gastrin-releasing peptide” (Abbott Laboratories, priority 2006, dated 2018).

Test system: serine protease such as thrombin
Test: Stabilization of ProGRP in serum by addition of PMSF (Example 2)
Assay type: biochemical
Details: PMSF added to serum, room temperature storage
Protocol: After PMSF (manufactured by Sigma-Aldrich Co.) was added to serum, ProGRP 31-98 antigen amino no acid synthesized by the Fmoc method was added thereto. After the mixture was stored at room temperature, the concentration of ProGRP was assayed using the Architect ProGRP. […] PMSF is a substance that is used to inactivate the activity of an enzyme of a serine protease such as thrombin and the presence of a protease such as thrombin can be considered to be the cause of ProGRP inactivation.

Compound: O=S(=O)(F)Cc1ccccc1 [PMSF, Phenylmethanesulfonyl Fluoride]
- effect on decrease in the activity of ProGRP in serum: significantly suppressed
